PubChem BioAssay (NCI)
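The compound was tested at five concentrations on cells cultured in 96-well plates, with a 48-hour exposure period. At the GI50, growth is halved. TGI denotes the concentration required for complete inhibition of growth.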

Columns and labels:
Experiment in all cases: growth of human tumour cells (NCI), 48 h
SNB-75 CNS = test system: SNB-75 CNS
T-47D breast = test system: T-47D breast
OVCAR-4 ovarian = test system: OVCAR-4 ovarian
TK-10 renal = test system: TK-10 renal
ACHN renal = test system: ACHN renal
RPMI-8226 leukemia = test system: RPMI-8226 leukemia
U251 CNS = test system: U251 CNS
SK-OV-3 ovarian = test system: SK-OV-3 ovarian
SR leukemia = test system: SR leukemia
SK-MEL-2 melanoma = test system: SK-MEL-2 melanoma
UACC-257 melanoma = test system: UACC-257 melanoma
PC-3 prostate = test system: PC-3 prostate
OVCAR-5 ovarian = test system: OVCAR-5 ovarian
A498 renal = test system: A498 renal
MDA-MB-435 = test system: MDA-MB-435
MCF7 breast = test system: MCF7 breast
NCI-H460 lung = test system: NCI-H460 lung
SF-295 CNS = test system: SF-295 CNS
786-0 renal = test system: 786-0 renal
HCT-15 colon = test system: HCT-15 colon
HT29 colon = test system: HT29 colon
NCI-H23 lung = test system: NCI-H23 lung
EKVX NSCLC = test system: EKVX NSCLC
KM12 colon = test system: KM12 colon
OVCAR-3 ovarian = test system: OVCAR-3 ovarian
OVCAR-8 ovarian = test system: OVCAR-8 ovarian
M14 melanoma = test system: M14 melanoma
COLO 205 colon = test system: COLO 205 colon
NCI-H522 lung = test system: NCI-H522 lung
SK-MEL-28 melanoma = test system: SK-MEL-28 melanoma
IGROV1 ovarian = test system: IGROV1 ovarian
NCI/ADR-RES ovarian = test system: NCI/ADR-RES ovarian
NCI-H226 lung = test system: NCI-H226 lung
SW-620 colon = test system: SW-620 colon
DU-145 prostate = test system: DU-145 prostate
CAKI-1 renal = test system: CAKI-1 renal
HOP-92 NSCLC = test system: HOP-92 NSCLC
HOP-62 NSCLC = test system: HOP-62 NSCLC
SF-268 CNS = test system: SF-268 CNS
LOX IMVI melanoma = test system: LOX IMVI melanoma
BT-549 breast = test system: BT-549 breast
RXF 393 renal = test system: RXF 393 renal
A549 NSCLC = test system: A549 NSCLC
MOLT-4 leukemia = test system: MOLT-4 leukemia
SNB-19 CNS = test system: SNB-19 CNS
CCRF-CEM leukemia = test system: CCRF-CEM leukemia
HCC-2998 colon = test system: HCC-2998 colon
SK-MEL-5 melanoma = test system: SK-MEL-5 melanoma
HL-60(TB) leukemia = test system: HL-60(TB) leukemia
UO-31 renal = test system: UO-31 renal
SF-539 CNS = test system: SF-539 CNS
SN12C renal = test system: SN12C renal
UACC-62 melanoma = test system: UACC-62 melanoma
HS 578T breast = test system: HS 578T breast
K-562 leukemia = test system: K-562 leukemia

Cc1cc(NCCCCNc2ccnc3cc(Cl)ccc23)nc(Nc2ccc(C(=O)N3CCCCC3)cc2)n1
GI50 (SNB-75 CNS): 1.72 µM
TGI (SNB-75 CNS): 3.29 µM
GI50 (T-47D breast): 2.52 µM
TGI (T-47D breast): 5.94 µM
GI50 (OVCAR-4 ovarian): 1.6 µM
TGI (OVCAR-4 ovarian): 5.52 µM
GI50 (TK-10 renal): 2.11 µM
TGI (TK-10 renal): 4.13 µM
GI50 (ACHN renal): 3.01 µM
TGI (ACHN renal): 9.28 µM
GI50 (RPMI-8226 leukemia): 0.239 µM
TGI (RPMI-8226 leukemia): 1.04 µM
GI50 (U251 CNS): 1.78 µM
TGI (U251 CNS): 3.56 µM
GI50 (SK-OV-3 ovarian): 2.78 µM
TGI (SK-OV-3 ovarian): 6.13 µM
GI50 (SR leukemia): 0.24 µM
TGI (SR leukemia): 0.855 µM
GI50 (SK-MEL-2 melanoma): 2.05 µM
TGI (SK-MEL-2 melanoma): 3.9 µM
GI50 (UACC-257 melanoma): 1.89 µM
TGI (UACC-257 melanoma): 3.42 µM
GI50 (PC-3 prostate): 1.32 µM
TGI (PC-3 prostate): 3.24 µM
GI50 (OVCAR-5 ovarian): 3.04 µM
TGI (OVCAR-5 ovarian): 9.22 µM
GI50 (A498 renal): 1.61 µM
TGI (A498 renal): 3.72 µM
GI50 (MDA-MB-435): 1.82 µM
TGI (MDA-MB-435): 3.42 µM
GI50 (MCF7 breast): 1.48 µM
TGI (MCF7 breast): 4.34 µM
GI50 (NCI-H460 lung): 1.78 µM
TGI (NCI-H460 lung): 3.78 µM
GI50 (SF-295 CNS): 1.67 µM
TGI (SF-295 CNS): 3.25 µM
GI50 (786-0 renal): 1.42 µM
TGI (786-0 renal): 2.97 µM
GI50 (HCT-15 colon): 1.28 µM
TGI (HCT-15 colon): 3.13 µM
GI50 (HT29 colon): 1.78 µM
TGI (HT29 colon): 4.62 µM
GI50 (NCI-H23 lung): 2.27 µM
TGI (NCI-H23 lung): 5.73 µM
GI50 (EKVX NSCLC): 2.97 µM
TGI (EKVX NSCLC): 10.8 µM
GI50 (KM12 colon): 1.91 µM
TGI (KM12 colon): 4.21 µM
GI50 (OVCAR-3 ovarian): 1.7 µM
TGI (OVCAR-3 ovarian): 3.44 µM
GI50 (OVCAR-8 ovarian): 2.34 µM
TGI (OVCAR-8 ovarian): 5.49 µM
GI50 (M14 melanoma): 0.197 µM
TGI (M14 melanoma): 0.383 µM
GI50 (COLO 205 colon): 1.76 µM
TGI (COLO 205 colon): 3.51 µM
GI50 (NCI-H522 lung): 1.86 µM
TGI (NCI-H522 lung): 4.22 µM
GI50 (SK-MEL-28 melanoma): 1.68 µM
TGI (SK-MEL-28 melanoma): 3.37 µM
GI50 (IGROV1 ovarian): 2.27 µM
TGI (IGROV1 ovarian): 6.22 µM
GI50 (NCI/ADR-RES ovarian): 3.04 µM
TGI (NCI/ADR-RES ovarian): 11.4 µM
GI50 (NCI-H226 lung): 2.62 µM
TGI (NCI-H226 lung): 7.81 µM
GI50 (SW-620 colon): 1.46 µM
TGI (SW-620 colon): 3.04 µM
GI50 (DU-145 prostate): 2.87 µM
TGI (DU-145 prostate): 10.7 µM
GI50 (CAKI-1 renal): 1.75 µM
TGI (CAKI-1 renal): 3.47 µM
GI50 (HOP-92 NSCLC): 1.21 µM
TGI (HOP-92 NSCLC): 3.03 µM
GI50 (HOP-62 NSCLC): 2.09 µM
TGI (HOP-62 NSCLC): 4.2 µM
GI50 (SF-268 CNS): 1.77 µM
TGI (SF-268 CNS): 3.64 µM
GI50 (LOX IMVI melanoma): 1.44 µM
TGI (LOX IMVI melanoma): 3.01 µM
GI50 (BT-549 breast): 1.69 µM
TGI (BT-549 breast): 3.21 µM
GI50 (RXF 393 renal): 1.24 µM
TGI (RXF 393 renal): 2.73 µM
GI50 (A549 NSCLC): 2.51 µM
TGI (A549 NSCLC): 5.47 µM
GI50 (MOLT-4 leukemia): 1.71 µM
TGI (MOLT-4 leukemia): 7.13 µM
GI50 (SNB-19 CNS): 3.25 µM
TGI (SNB-19 CNS): 13.3 µM
GI50 (CCRF-CEM leukemia): 0.608 µM
TGI (CCRF-CEM leukemia): 7.55 µM
GI50 (HCC-2998 colon): 1.82 µM
TGI (HCC-2998 colon): 4.13 µM
GI50 (SK-MEL-5 melanoma): 1.7 µM
TGI (SK-MEL-5 melanoma): 3.07 µM

O=C(NCCN1CCOCC1)c1ccc(I)cc1
TGI (SNB-75 CNS): > 100 µM
TGI (OVCAR-4 ovarian): > 100 µM
TGI (HL-60(TB) leukemia): > 100 µM
TGI (TK-10 renal): > 100 µM
TGI (ACHN renal): > 100 µM
TGI (RPMI-8226 leukemia): > 100 µM
TGI (U251 CNS): > 100 µM
TGI (SK-OV-3 ovarian): > 100 µM
TGI (SR leukemia): > 100 µM
TGI (PC-3 prostate): > 100 µM
TGI (OVCAR-5 ovarian): > 100 µM
TGI (A498 renal): > 100 µM
TGI (UO-31 renal): > 100 µM
TGI (MCF7 breast): > 100 µM
TGI (NCI-H460 lung): > 100 µM
TGI (SF-539 CNS): > 100 µM
TGI (SN12C renal): > 100 µM
TGI (786-0 renal): > 100 µM
TGI (UACC-62 melanoma): > 100 µM
TGI (HCT-15 colon): > 100 µM
TGI (HT29 colon): > 100 µM
TGI (NCI-H23 lung): > 100 µM
TGI (EKVX NSCLC): > 100 µM
TGI (OVCAR-3 ovarian): > 100 µM
TGI (OVCAR-8 ovarian): > 100 µM
TGI (M14 melanoma): > 100 µM
TGI (SK-MEL-28 melanoma): > 100 µM
TGI (IGROV1 ovarian): > 100 µM
TGI (NCI/ADR-RES ovarian): > 100 µM
TGI (NCI-H226 lung): > 100 µM
TGI (SW-620 colon): > 100 µM
TGI (CAKI-1 renal): > 100 µM
TGI (SF-268 CNS): > 100 µM
TGI (LOX IMVI melanoma): > 100 µM
TGI (BT-549 breast): > 100 µM
TGI (HS 578T breast): > 100 µM
TGI (A549 NSCLC): > 100 µM
TGI (MOLT-4 leukemia): > 100 µM
TGI (SNB-19 CNS): > 100 µM
TGI (CCRF-CEM leukemia): > 100 µM
TGI (K-562 leukemia): > 100 µM
TGI (HCC-2998 colon): > 100 µM
TGI (SK-MEL-5 melanoma): > 100 µM

Cc1cn2c(/C=N/N=C(N)N)c(-c3ccc(Cl)c([N+](=O)[O-])c3)nc2s1
TGI (SNB-75 CNS): 2.37 µM
TGI (SK-OV-3 ovarian): 3.15 µM
TGI (SK-MEL-2 melanoma): 1.6 µM
TGI (UACC-257 melanoma): > 100 µM
TGI (OVCAR-5 ovarian): 2.41 µM
TGI (UO-31 renal): 3.4 µM
TGI (SF-539 CNS): 3.11 µM
TGI (HT29 colon): 2.72 µM
TGI (EKVX NSCLC): 2.1 µM
TGI (OVCAR-8 ovarian): > 100 µM
TGI (COLO 205 colon): 1.88 µM
TGI (SK-MEL-28 melanoma): 3.05 µM
TGI (NCI/ADR-RES ovarian): > 100 µM
TGI (SW-620 colon): > 100 µM
TGI (CAKI-1 renal): > 100 µM
TGI (HS 578T breast): > 100 µM
